{
  "source": "patent US20050130252A1",
  "about": "“Stabilized susceptibility tests of aerobic pathogens” (Wyeth Holdings Corporation, priority 2003, published 2005)",
  "experiment_in_all_cases": "Agar dilution in vitro activity",
  "type_in_all_cases": "cell-based",
  "key": {"[1]": {"tested_on": "Escherichia coli GC2203 ATCC Control", "details": "E. coli GC2203 ATCC Control", "method": "(§1) The in vitro activities of tigecycline and control antibiotics were determined by the broth microdilution method as recommended by the NCCLS. (National Committee for Clinical Laboratory Standards, 2003. Methods for Dilution Antimicrobial Susceptibility Tests for Bacteria That Grow Aerobically; Approved Standards: M7-A6, Sixth ed, vol. 23., National Committee for Clinical Laboratory Standards Wayne, Pa.) was used for the standard procedures. MBH with 5% lysed horse blood was used for testing S. pneumoniae and Haemophilus Test Medium was used for testing H. influenzae. […] Media age studies were performed by preparing MHB in multiple flasks, then storing the media under various conditions. MICs were usually performed in duplicate on each day of testing. Storage under anaerobic conditions was conducted in an anaerobic chamber (MACS MG 1000, Don Whitley Scientific LTD). The pH of the media was determined by pH meter (Corning 430). A comparison of the in vitro activity of tigecycline by agar and broth dilution methodolgies with and without Oxyrase® against clinical isolates is shown in Table 1."}, "[2]": {"tested_on": "Staphylococcus aureus GC6467 Clinical - tet(M) + (K)", "details": "S. aureus GC6467 tet(M) + (K)", "method": "as §1"}, "[3]": {"tested_on": "Enterococcus faecalis GC4555 ATCC Control", "details": "E. faecalis GC4555 ATCC Control", "method": "as §1"}, "[4]": {"tested_on": "Escherichia coli GC4559 parent GC4560", "details": "E. coli GC4559", "method": "as §1"}, "[5]": {"tested_on": "Escherichia coli GC2270 tet(M)", "details": "E. coli GC2270 tet(M)", "method": "as §1"}, "[6]": {"tested_on": "Staphylococcus aureus GC2216 ATCC Control", "details": "S. aureus GC2216 ATCC Control", "method": "as §1"}, "[7]": {"tested_on": "Escherichia coli GC1073 tet(B) wt", "details": "E. coli GC1073 tet(B) wt", "method": "as §1"}, "[8]": {"tested_on": "Candida albicans GC3066 ATCC Control", "details": "C. albicans GC3066 ATCC Control", "method": "as §1"}, "[9]": {"tested_on": "Staphylococcus aureus GC1131 Clinical isolate", "details": "S. aureus GC1131", "method": "as §1"}, "[10]": {"tested_on": "Staphylococcus aureus GC6466 Clinical - tet(M)", "details": "S. aureus GC6466 tet(M)", "method": "as §1"}, "[11]": {"tested_on": "Escherichia coli GC4560 IMP mutant", "details": "E. coli GC4560 IMP mutant", "method": "as §1"}, "[12]": {"tested_on": "Enterococcus faecalis GC2242 Vancomycin-Resistant", "details": "E. faecalis GC2242 Vancomycin-Resistant", "method": "as §1"}, "[13]": {"tested_on": "Staphylococcus aureus GC4536 Smith MP -In Vivo", "details": "S. aureus GC4536 Smith", "method": "as §1"}},
  "data": [
    {"smiles": "CN(C)c1cc(NC(=O)CNC(C)(C)C)c(O)c2c1C[C@H]1C[C@H]3[C@H](N(C)C)C(O)=C(C(N)=O)C(=O)[C@@]3(O)C(O)=C1C2=O", "note": "[Tigecycline, tigecycline]", "values": [
      {"measurement": "In Vitro Activity of Tigecycline", "setting": "[1]; Oxyrase (10%)", "value": 0.12},
      {"measurement": "In Vitro Activity of Tigecycline", "setting": "[1]; no Oxyrase", "value": 0.25},
      {"measurement": "In Vitro Activity of Tigecycline", "setting": "[2]; Oxyrase (10%)", "value": 0.5},
      {"measurement": "In Vitro Activity of Tigecycline", "setting": "[2]; no Oxyrase", "value": 1},
      {"measurement": "In Vitro Activity of Tigecycline", "setting": "[3]; Oxyrase (10%)", "value": 0.12},
      {"measurement": "In Vitro Activity of Tigecycline", "setting": "[3]; no Oxyrase", "value": 0.12},
      {"measurement": "In Vitro Activity of Tigecycline", "setting": "[4]; Oxyrase (10%)", "value": 0.12},
      {"measurement": "In Vitro Activity of Tigecycline", "setting": "[4]; no Oxyrase", "value": 0.25},
      {"measurement": "In Vitro Activity of Tigecycline", "setting": "[5]; Oxyrase (10%)", "value": 0.12},
      {"measurement": "In Vitro Activity of Tigecycline", "setting": "[5]; no Oxyrase", "value": 0.25},
      {"measurement": "In Vitro Activity of Tigecycline", "setting": "[6]; Oxyrase (10%)", "value": 0.25},
      {"measurement": "In Vitro Activity of Tigecycline", "setting": "[6]; no Oxyrase", "value": 0.5},
      {"measurement": "In Vitro Activity of Tigecycline", "setting": "[7]; Oxyrase (10%)", "value": 0.25},
      {"measurement": "In Vitro Activity of Tigecycline", "setting": "[7]; no Oxyrase", "value": 0.25},
      {"measurement": "In Vitro Activity of Tigecycline", "setting": "[8]; Oxyrase (10%)", "value": ">16"},
      {"measurement": "In Vitro Activity of Tigecycline", "setting": "[8]; no Oxyrase", "value": ">16"},
      {"measurement": "In Vitro Activity of Tigecycline", "setting": "[9]; Oxyrase (10%)", "value": 0.25},
      {"measurement": "In Vitro Activity of Tigecycline", "setting": "[9]; no Oxyrase", "value": 0.25},
      {"measurement": "In Vitro Activity of Tigecycline", "setting": "[10]; Oxyrase (10%)", "value": 0.12},
      {"measurement": "In Vitro Activity of Tigecycline", "setting": "[10]; no Oxyrase", "value": 0.25},
      {"measurement": "In Vitro Activity of Tigecycline", "setting": "[11]; Oxyrase (10%)", "value": 0.03},
      {"measurement": "In Vitro Activity of Tigecycline", "setting": "[11]; no Oxyrase", "value": 0.03},
      {"measurement": "In Vitro Activity of Tigecycline", "setting": "[12]; Oxyrase (10%)", "value": 0.12},
      {"measurement": "In Vitro Activity of Tigecycline", "setting": "[12]; no Oxyrase", "value": 0.12},
      {"measurement": "In Vitro Activity of Tigecycline", "setting": "[13]; Oxyrase (10%)", "value": 0.12},
      {"measurement": "In Vitro Activity of Tigecycline", "setting": "[13]; no Oxyrase", "value": 0.25}
    ]}
  ]
}
